Results published in patent US10500232B2, “Small molecule cellular reprogramming to generate neuronal cells” (The J. David Gladstone Institutes, a testamentary trust …, priority 2013, dated 2019).
Like-named read-outs stand apart in the source and are kept apart here.

How the values were obtained:
[1] = biological target: mGlu4 (Homo sapiens, UniProt Q14833); details: cited from earlier work
[2] = biological target: mGlu receptors; details: cited from earlier work
[3] = system: Tau-EGFP mouse embryonic fibroblasts transduced with Ascl1/Myt1l; assay: High-throughput compound screening for Tau-EGFP expression and neuronal morphology; type: cell-based; details: individual compound plus doxycycline 7 days, analysed day 14; hits confirmed dose-dependently in larger well format
Method: Infected Tau-EGFP MEFs in 150-mm dishes were dissociated by trypsinization and plated to 384-well plates with 4×10^3 cells per well in 50 μl of N2B27 medium plus 2.0 μg ml^−1 doxycycline by using Multi-drop (Thermo Fisher). Fifty nanoliters of compounds from a collection of known drugs (˜3,000) were added to each well of infected cells by using BioMek (BD). After 3 days of compound treatment, […] N2B27 media were added to each well to keep the medium volume at 55-60 μl. The total period of compound treatment is 7 days. After that, medium was replaced with neuronal maturation medium for another 7 days. The cells were then fixed for immunostaining on Day 14. The high-throughput imaging was performed by using InCell 2000. Finally, the screening result was analyzed by InCell Workstation 2000.
To conduct the chemical screening, Tau-EGFP mouse embryonic fibroblasts were used that were transduced with an Ascl1/Myt1l coding region that was under control of tet operator. These cells were plated at 4,000 cells/well in 384-well plates containing chemically defined N2B27 media. After overnight incubation, the cells were treated for seven days with doxycycline to induce Ascl1/Myt1l expression and also contacted with individual compounds selected from a drug collection containing over 3000 compounds. The media was then replaced with compound-free standard neuronal media. Cells were fixed at day 14 then analyzed for Tau-EGFP expression and neuronal morphology by high content imaging (FIG. 4A and FIG. 3).

[4] = system: HDAC activity in HeLa extracts; details: read-out: IC50 for inhibition of HDAC activity; cited from earlier work
[5] = system: PDE4; details: read-out: IC50 against PDE4; cited from earlier work
[6] = biological target: histone acetyltransferase p300 (Homo sapiens, UniProt Q09472); details: simplified analog of CTPB; cited from earlier work
Sequence of histone acetyltransferase p300 (Q09472 whole entry, species assumed): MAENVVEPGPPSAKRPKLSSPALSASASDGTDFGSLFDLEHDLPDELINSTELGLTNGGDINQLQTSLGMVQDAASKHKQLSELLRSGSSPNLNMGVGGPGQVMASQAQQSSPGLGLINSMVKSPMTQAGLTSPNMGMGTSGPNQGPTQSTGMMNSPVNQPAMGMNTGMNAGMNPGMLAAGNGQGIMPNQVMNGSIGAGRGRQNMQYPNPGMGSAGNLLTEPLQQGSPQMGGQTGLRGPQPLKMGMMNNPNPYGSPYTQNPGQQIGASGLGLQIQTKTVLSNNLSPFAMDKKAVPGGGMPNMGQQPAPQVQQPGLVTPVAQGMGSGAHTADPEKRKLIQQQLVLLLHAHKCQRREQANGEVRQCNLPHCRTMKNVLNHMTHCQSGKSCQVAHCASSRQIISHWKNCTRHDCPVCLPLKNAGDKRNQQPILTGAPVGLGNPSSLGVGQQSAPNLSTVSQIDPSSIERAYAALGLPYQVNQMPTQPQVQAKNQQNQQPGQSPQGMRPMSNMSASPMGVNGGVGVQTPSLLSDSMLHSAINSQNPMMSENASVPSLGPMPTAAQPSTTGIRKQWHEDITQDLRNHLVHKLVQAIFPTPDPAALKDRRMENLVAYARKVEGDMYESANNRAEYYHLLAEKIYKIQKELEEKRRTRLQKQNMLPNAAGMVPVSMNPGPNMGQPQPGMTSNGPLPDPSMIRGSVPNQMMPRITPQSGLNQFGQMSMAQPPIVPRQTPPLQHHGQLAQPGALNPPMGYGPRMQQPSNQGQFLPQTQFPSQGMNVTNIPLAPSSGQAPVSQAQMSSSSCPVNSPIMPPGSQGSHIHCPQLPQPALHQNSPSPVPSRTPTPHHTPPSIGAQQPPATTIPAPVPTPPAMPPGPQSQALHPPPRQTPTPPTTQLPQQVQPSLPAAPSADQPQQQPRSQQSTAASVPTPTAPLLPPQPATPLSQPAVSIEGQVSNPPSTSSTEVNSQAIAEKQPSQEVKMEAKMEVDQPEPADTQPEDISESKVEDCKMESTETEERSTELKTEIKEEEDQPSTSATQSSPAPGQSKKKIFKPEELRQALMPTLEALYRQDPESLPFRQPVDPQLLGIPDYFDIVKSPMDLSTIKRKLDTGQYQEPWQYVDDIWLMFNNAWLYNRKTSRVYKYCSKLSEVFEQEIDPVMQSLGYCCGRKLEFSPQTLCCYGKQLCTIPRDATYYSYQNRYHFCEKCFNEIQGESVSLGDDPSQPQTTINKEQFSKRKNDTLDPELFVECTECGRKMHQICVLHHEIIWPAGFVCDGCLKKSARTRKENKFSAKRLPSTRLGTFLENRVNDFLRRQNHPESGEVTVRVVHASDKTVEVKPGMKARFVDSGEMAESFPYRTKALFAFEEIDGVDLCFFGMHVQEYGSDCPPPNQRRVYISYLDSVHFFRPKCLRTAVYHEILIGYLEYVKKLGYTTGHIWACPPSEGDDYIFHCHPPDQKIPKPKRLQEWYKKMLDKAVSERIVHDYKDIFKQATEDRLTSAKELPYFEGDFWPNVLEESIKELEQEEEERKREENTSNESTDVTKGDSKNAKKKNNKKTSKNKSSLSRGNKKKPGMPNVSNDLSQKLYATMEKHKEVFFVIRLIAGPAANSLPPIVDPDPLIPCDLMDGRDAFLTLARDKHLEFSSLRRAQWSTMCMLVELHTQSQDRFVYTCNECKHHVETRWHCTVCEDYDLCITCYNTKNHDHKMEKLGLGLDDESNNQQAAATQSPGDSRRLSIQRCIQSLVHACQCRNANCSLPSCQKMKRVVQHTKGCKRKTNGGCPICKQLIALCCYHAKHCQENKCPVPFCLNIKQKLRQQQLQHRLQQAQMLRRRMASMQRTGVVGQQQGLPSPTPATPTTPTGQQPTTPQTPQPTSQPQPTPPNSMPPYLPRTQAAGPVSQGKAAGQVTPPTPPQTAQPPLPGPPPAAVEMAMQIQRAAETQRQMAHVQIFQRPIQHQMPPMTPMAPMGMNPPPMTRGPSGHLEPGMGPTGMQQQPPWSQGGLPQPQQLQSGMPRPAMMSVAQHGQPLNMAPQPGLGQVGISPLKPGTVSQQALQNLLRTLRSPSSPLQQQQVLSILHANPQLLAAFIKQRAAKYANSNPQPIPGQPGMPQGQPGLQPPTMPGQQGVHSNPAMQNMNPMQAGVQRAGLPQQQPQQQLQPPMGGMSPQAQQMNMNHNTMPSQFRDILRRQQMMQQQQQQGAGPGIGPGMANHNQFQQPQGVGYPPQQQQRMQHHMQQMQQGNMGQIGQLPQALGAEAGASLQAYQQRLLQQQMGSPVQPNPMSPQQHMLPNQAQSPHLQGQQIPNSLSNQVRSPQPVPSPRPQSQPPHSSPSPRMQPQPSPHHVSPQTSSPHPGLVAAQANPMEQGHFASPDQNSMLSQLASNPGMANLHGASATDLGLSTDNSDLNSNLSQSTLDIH

[7] = system: histone deacetylases (HDACs); details: read-out: IC50 (histone deacetylase), cited from earlier work
[8] = biological target: SAPK2/p38 (Homo sapiens, UniProt Q16539); details: inhibitor of CK1 and ALK5; cited from earlier work
Sequence of SAPK2/p38 (Q16539 whole entry): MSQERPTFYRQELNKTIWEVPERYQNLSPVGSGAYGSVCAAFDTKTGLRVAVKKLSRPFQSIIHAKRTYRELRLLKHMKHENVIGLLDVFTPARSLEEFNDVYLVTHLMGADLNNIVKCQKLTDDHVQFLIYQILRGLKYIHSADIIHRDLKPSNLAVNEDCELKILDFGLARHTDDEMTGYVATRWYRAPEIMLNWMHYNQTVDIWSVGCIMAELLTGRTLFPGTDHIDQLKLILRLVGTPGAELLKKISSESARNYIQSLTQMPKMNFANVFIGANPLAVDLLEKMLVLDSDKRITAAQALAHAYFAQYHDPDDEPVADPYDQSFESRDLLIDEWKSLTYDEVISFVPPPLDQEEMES

[9] = biological target: adenylate cyclase 1 (Homo sapiens, UniProt Q08828); details: cited from earlier work
Sequence of adenylate cyclase 1 (Q08828 whole entry): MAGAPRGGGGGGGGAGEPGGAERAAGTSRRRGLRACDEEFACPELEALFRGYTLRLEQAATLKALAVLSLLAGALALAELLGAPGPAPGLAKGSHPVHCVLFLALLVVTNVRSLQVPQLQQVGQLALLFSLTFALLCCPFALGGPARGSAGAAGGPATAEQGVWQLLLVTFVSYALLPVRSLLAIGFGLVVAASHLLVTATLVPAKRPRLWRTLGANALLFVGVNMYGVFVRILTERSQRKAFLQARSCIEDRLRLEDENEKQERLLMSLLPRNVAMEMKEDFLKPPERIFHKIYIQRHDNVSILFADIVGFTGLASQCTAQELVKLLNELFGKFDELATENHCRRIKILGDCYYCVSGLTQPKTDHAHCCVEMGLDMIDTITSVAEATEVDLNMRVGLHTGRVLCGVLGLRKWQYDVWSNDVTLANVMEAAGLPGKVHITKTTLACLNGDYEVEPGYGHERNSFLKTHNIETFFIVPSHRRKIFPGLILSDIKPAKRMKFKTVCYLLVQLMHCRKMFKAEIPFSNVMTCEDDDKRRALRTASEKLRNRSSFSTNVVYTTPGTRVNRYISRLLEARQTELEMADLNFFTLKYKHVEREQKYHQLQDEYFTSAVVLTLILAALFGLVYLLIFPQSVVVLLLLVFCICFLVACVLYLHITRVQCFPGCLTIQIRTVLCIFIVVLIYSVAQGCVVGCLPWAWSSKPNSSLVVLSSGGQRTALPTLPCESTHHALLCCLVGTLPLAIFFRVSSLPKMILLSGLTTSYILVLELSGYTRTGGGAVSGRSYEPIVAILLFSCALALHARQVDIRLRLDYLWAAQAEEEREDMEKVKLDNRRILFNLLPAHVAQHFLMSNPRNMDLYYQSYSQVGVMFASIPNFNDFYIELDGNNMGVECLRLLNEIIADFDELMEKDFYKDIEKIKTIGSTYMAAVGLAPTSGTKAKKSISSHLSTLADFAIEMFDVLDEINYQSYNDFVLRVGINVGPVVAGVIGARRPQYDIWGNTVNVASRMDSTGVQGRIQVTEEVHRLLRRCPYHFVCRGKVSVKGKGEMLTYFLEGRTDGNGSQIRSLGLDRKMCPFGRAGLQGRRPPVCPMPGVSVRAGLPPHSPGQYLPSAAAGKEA

[10] = biological target: rat Group II mGlu receptor; details: read-out: IC50 against rat Group II mGlu receptor; cited from earlier work
[11] = biological target: various mGlu receptors; details: Ki depends on which receptor is bound; cited from earlier work
[12] = system: mGlu(3) receptors; details: rodent and human; cited from earlier work
[13] = system: mGlu(2) receptors; details: rodent and human; cited from earlier work
[14] = system: STRC2-Ascl1/Myt1l neuronal cells from MEFs; assay: Patch clamp electrophysiology of STRC2-Ascl1/Myt1l induced neuronal cells; type: cell-based, mouse
[15] = system: RFP-positive miR124-RFP/Brn2 human fibroblast-derived cells; assay: Patch clamp electrophysiology of STRC2-treated miR124-RFP/Brn2 cells; type: cell-based

Sequence of mGlu4 (Q14833 33-912): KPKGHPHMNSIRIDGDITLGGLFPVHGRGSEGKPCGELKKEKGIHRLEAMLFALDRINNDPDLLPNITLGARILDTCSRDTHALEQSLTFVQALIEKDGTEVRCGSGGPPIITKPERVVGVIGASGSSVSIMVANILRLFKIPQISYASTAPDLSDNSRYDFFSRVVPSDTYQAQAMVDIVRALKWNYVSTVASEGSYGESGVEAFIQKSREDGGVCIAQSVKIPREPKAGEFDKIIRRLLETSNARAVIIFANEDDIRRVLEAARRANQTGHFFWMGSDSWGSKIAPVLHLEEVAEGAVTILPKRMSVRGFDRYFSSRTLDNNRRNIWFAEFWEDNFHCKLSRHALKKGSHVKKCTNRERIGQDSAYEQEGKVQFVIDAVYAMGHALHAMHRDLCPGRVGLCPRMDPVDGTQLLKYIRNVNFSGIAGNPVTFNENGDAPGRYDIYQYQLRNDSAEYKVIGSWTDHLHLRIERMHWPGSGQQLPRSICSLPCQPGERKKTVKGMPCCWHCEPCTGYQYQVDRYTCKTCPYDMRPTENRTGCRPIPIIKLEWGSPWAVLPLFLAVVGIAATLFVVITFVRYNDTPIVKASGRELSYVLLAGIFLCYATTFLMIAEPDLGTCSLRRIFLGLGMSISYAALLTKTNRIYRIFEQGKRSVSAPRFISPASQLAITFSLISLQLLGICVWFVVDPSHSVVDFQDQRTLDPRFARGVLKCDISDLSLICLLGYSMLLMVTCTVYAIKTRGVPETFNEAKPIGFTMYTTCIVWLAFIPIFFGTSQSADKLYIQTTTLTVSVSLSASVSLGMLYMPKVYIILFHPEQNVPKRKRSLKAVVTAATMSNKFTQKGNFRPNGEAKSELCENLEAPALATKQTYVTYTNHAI

Q: With O=C(Nc1cc(Cl)cc(Cl)c1)[C@H]1CCCC[C@H]1C(=O)O (relative stereo) [VU0155041, cis-2-[[(3,5-dichlorophenyl)amino]carbonyl]cyclohexanecarboxylic acid] as the compound, how does the EC50 [1] read?
A: 1000 nM

Q: For N[C@@]1(C(=O)O)CC[C@@H](C(=O)O)C1 [ACPD, (1S,3R)-1-aminocyclopentane-1,3-dicarboxylic acid], which EC50 [2] is on record?
A: 9000 to 40000 nM

Q: What about the “induction of Tau-EGFP expression and neuronal morphology (screen hit)” value [3] of the same compound?
A: induce Tau-EGFP expression and a neuronal morphology

Q: With Nc1ccccc1NC(=O)CCCCCCC(=O)Nc1ccccc1 [BML-210, N1-(2-aminophenyl)-N8-phenyl-octanediamide] as the compound, how does the IC50 [4] read?
A: ~80000 nM

Q: Which “induction of Tau-EGFP expression and neuronal morphology (screen hit)” value [3] does the source give for O=C(O)c1ccc(-c2ccc3cc(O)c(C45CC6CC(CC(C6)C4)C5)cc3c2)cc1 [CD1530, 4-(6-hydroxy-7-tricyclo[3.3.1.13,7]dec-1-yl-2-naphthalenyl)benzoic acid] here?
A: induce Tau-EGFP expression and a neuronal morphology

Q: For COc1ccc([C@H](Cc2ccncc2)c2ccccc2)cc1OC1CCCC1 [CDP-840, 4-[(2R)-2-(3-cyclopentyloxy-4-methoxyphenyl)-2-phenylethyl]pyridine], which IC50 [5] is on record?
A: ~10000 nM

Q: With Cc1c[nH]c(-c2cnc(NCCNc3ccc(C#N)cn3)nc2-c2ccc(Cl)cc2Cl)n1 [CHIR99021, 6-(2-(4-(2,4-dichlorophenyl)-5-(4-methyl-1H-imidazol-2-yl)pyrimidin-2-ylamino)ethylamino)nicotinonitrile] as the compound, how does the “induction of Tau-EGFP expression and neuronal morphology (screen hit)” value [3] read?
A: induce Tau-EGFP expression and a neuronal morphology

Q: Which “activity as p300 activator relative to CTPB” value [6] does the source give for CCOc1ccccc1C(=O)Nc1ccc(Cl)c(C(F)(F)F)c1 [CTB, N-(4-chloro-3-trifluoromethyl-phenyl)-2-ethoxybenzamide] here?
A: comparable or higher activity

Q: Which “induction of Tau-EGFP expression and neuronal morphology (screen hit)” value [3] does the source give for CCCCCCCCCCCCCCCc1cccc(OCC)c1C(=O)Nc1ccc(Cl)c(C(F)(F)F)c1 [CTPB, N-(4-chloro-3-trifluoromethyl-phenyl)-2-ethoxy-6-pentadecyl-benzamide] here?
A: induce Tau-EGFP expression and a neuronal morphology

Q: Which IC50 ([7]; isoform not stated) does the source give for CC1(C)NC(=O)C(CCCCCC(=O)[C@H]2CO2)NC(=O)C2CCCN2C(=O)[C@@H](Cc2ccccc2)NC1=O (stereo partly drawn) [Chlamydocin, (3R)-3-benzyl-6,6-dimethyl-9-[6-[(2R)-oxiran-2-yl]-6-oxohexyl]-1,4,7,10-tetrazabicyclo[10.3.0]pentadecane-2,5,8,11-tetrone] here?
A: ~0.15 nM

Q: Which IC50 [5] does the source give for Cc1cc2c3c(c1)C(c1ccccc1)=N[C@@H](NC(=O)c1ccncc1)C(=O)N3CC2 [Cl-1018, N-[(3R)-9-methyl-4-oxo-1-phenyl-3,4,6,7-tetrahydro[1,4]diazepino[6,7,1-hi]indol-3-yl]pyridine-4-carboxamide] here?
A: ~3000 nM

Q: For NC(=O)c1ccc(-c2nc(-c3ccc4c(c3)OCCO4)c(-c3ccccn3)[nH]2)cc1 [D 4476, 4-[4-(2,3-Dihydro-1,4-benzodioxin-6-yl)-5-(2-pyridinyl)-IH-imidazol-2-yl]benzamide], which “selectivity over SAPK2/p38” value [8] is on record?
A: greater than 20 fold

Q: With COc1ccc(C(=O)Nc2cc(Cl)cnc2Cl)c2cccnc12 [D-4418, N-(2,5-dichloropyridin-3-yl)-8-methoxyquinoline-5-carboxamide] as the compound, how does the IC50 [5] read?
A: ~170 nM

Q: For C=C[C@@]1(C)CC(=O)[C@]2(O)[C@@]3(C)[C@@H](O)CCC(C)(C)[C@@H]3[C@H](O)[C@H](OC(C)=O)[C@@]2(C)O1 [Forskolin], which IC50 [9] is on record?
A: 40 to 150 nM

Q: Which “induction of Tau-EGFP expression and neuronal morphology (screen hit)” value [3] does the source give for CCOC(=O)c1ccc(N(C)C2CSC(c3ccccc3)=N2)cc1 (stereo not shown) [KHS2, ethyl 4-(methyl(2-phenyl-4,5-dihydrothiazol-4-yl)amino)benzoate] here?
A: induce Tau-EGFP expression and a neuronal morphology

Q: With N[C@@]1(C(=O)O)CC[C@H]2[C@H](C(=O)O)[C@H]21 [LY354740, 1S,2S,5R,6S-2-aminobicyclo[3.1.0]hexane-2,6-dicarboxylate] as the compound, how does the IC50 [10] read?
A: ~254 nM

Q: For N[C@@]1(C(=O)O)COC2C1[C@H]2C(=O)O (stereo partly drawn) [LY379268, (4R,6R)-4-amino-2-oxabicyclo[3.1.0]hexane-4,6-dicarboxylic acid], which Ki [11] is on record?
A: 2.7 to 100000 nM

Q: For NC1(C(=O)O)CC(F)C2C(C(=O)O)C21 (stereo not shown) [LY459477, 2-amino-4-fluorobicyclo[3.1.0]hexane-2,6-dicarboxylic acid], which “potency for mGlu(3) receptors” value [12] is on record?
A: 1 to 2 nM

Q: And the “potency for mGlu(2) receptors” value [13]?
A: 1 to 2 nM

Q: Which EC50 [1] does the source give for NC(=O)[C@@H]1CCCC[C@@H]1C(=O)Nc1ccc(Cl)c(Cl)c1 [Lu AF21934, (1S,2R)-N1-(3,4-dichlorophenyl)cyclohexane-1,2-dicarboxamide] here?
A: 500 nM

Q: Which EC50 [1] does the source give for NC(=O)[C@H]1CCCC[C@H]1C(=O)Nc1ccc(Cl)c(Cl)c1 [Lu AF21935, (1R,2S)-N1-(3,4-dichlorophenyl)cyclohexane-1,2-dicarboxamide] here?
A: > 10000 nM

Q: For Nc1ccccc1NC(=O)c1ccc(CNc2nccc(-c3cccnc3)n2)cc1 [MGCD0103, N-(2-aminophenyl)-4-[[(4-pyridin-3-ylpyrimidin-2-yl)amino]methyl]benzamide], which IC50 ([7]; isoform not stated) is on record?
A: ~100 nM

Q: For Nc1ccccc1NC(=O)c1ccc(CNC(=O)OCc2cccnc2)cc1 [MS-27-275, pyridin-3-ylmethyl-N-[[4-[(2-aminophenyl)carbamoyl]phenyl]methyl]carbamate], which IC50 [7] is on record?
A: 100 to 1000 nM

Q: For NS(=O)(=O)c1cccc2c1c([N+](=O)[O-])cc1nc(O)c(O)nc12 [NBQX, 2,3-dihydroxy-6-nitro-7-sulfamoylbenzo quinoxaline], which “effect on spontaneous excitatory postsynaptic current (sEPSC)” value ([14]; AMPA receptor antagonist, 10 μM) is on record?
A: blocked

Q: Which “induction of Tau-EGFP expression and neuronal morphology (screen hit)” value [3] does the source give for NC(=O)c1ccc(-c2nc(-c3ccc4c(c3)OCO4)c(-c3ccccn3)[nH]2)cc1 [SB 431542, 4-[4-(1,3-benzodioxol-5-yl)-5-(2-pyridinyl)-1H-imidazol-2-yl]benzamide] here?
A: induce Tau-EGFP expression and a neuronal morphology

Q: Which IC50 [5] does the source give for COc1ccc(C(=O)Nc2c(Cl)c[n+]([O-])cc2Cl)c2ccc(C(F)(F)F)nc12 [Sch-351591] here?
A: 150 nM

Q: Which “induction of Tau-EGFP expression and neuronal morphology (screen hit)” value [3] does the source give for Cc1cc(C)cc(C(=O)OC2CC3CCC(C2)N3C)c1 (stereo not shown) [TDMB, Tropanyl-3,5-dimethylbenzoate] here?
A: induce Tau-EGFP expression and a neuronal morphology

Q: With NC1=N[C@H](O)[C@H]2[C@H]3O[C@]4(O)O[C@@H]([C@@H](O)[C@@]2(N1)[C@@H]4O)[C@]3(O)CO [TTX, tetrodotoxin] as the compound, how does the “effect on trains of action potentials” value [15] read?
A: abolished

Q: With CC(/C=C/C(=O)NO)=C\[C@@H](C)C(=O)c1ccc(N(C)C)cc1 [Trichostatin A, (R,2E,4E)-6-(4-(dimethylamino)benzoyl)-N-hydroxy-4-methylhepta-2,4-dienamide] as the compound, how does the “induction of Tau-EGFP expression and neuronal morphology (screen hit)” value [3] read?
A: induce Tau-EGFP expression and a neuronal morphology

Q: And the IC50 [7]?
A: ~1.8 nM

Q: With C[C@@H](N)[C@H]1CC[C@H](C(=O)Nc2ccncc2)CC1 [Y27632, 4-[(1R)-1-aminoethyl]-N-pyridin-4-ylcyclohexane-1-carboxamide] as the compound, how does the “induction of Tau-EGFP expression and neuronal morphology (screen hit)” value [3] read?
A: induce Tau-EGFP expression and a neuronal morphology

Q: For COc1ccc(C2(C#N)CCC(C(=O)O)CC2)cc1OC1CCCC1 (stereo not shown) [ariflo, 4-cyano-4-(3-cyclopentyloxy-4-methoxyphenyl)cyclohexane-1-carboxylic acid], which IC50 [5] is on record?
A: ~150 nM

Q: For O=C(Nc1c(Cl)cncc1Cl)c1ccc(OC(F)F)c(OCC2CC2)c1 [roflumilast, 3-(cyclopropylmethoxy)-N-(3,5-dichloropyridin-4-yl)-4-(difluoromethoxy)benzamide], which IC50 [5] is on record?
A: 0.6 nM

Q: Which “induction of Tau-EGFP expression and neuronal morphology (screen hit)” value [3] does the source give for COc1ccc(C2CNC(=O)C2)cc1OC1CCCC1 (stereo not shown) [rolipram, 4-(3-cyclopentyloxy-4-methoxyphenyl)pyrrolidin-2-one] here?
A: induce Tau-EGFP expression and a neuronal morphology

Q: Which IC50 [5] does the source give for CCc1nn(C2CCCC2)c2c1CCn1c(-c3cccs3)nnc1-2 [tofimilast] here?
A: ~13 nM

Q: With “(2S,3S,4R,5R)-3,4-dihydroxy-5-[6-[(3-iodophenyl)methylamino]purin-9-yl]-N-ethyloxolane-2-carboxamide [IB-MECA]” as the compound, how does the “induction of Tau-EGFP expression and neuronal morphology (screen hit)” value [3] read?
A: induce Tau-EGFP expression and a neuronal morphology

Q: For picrotoxin, which “effect on inhibitory postsynaptic currents (sIPSCs)” value ([14]; GABAA receptor antagonist, 50 μM) is on record?
A: blocked
